“Also recorded” adds a separate entry of the source.
Tests used:
human sensory neurons = assay: Human NPC-derived sensory neurons, spontaneous activity; format: cell-based; conditions: 5 μM
Protocol: Cell culture and differentiation: Human PSC-derived neural progenitor cells (Stem Cell Catalog No. 70901 and 70902) were cultured and expanded on Matrigel coated 6-wells plates, using neuronal progenitor medium containing: Neurobasal media supplemented by non-essential amino-acids, 1%; Glutamax, 1%; B27, 2%, FGF2, 20 ng/mL). hNPC were then plated onto PDL and Matrigel coated 12 mm coverglass at a density of about 50,000 cells/well of a 6 well, in DMEM/F12; 10% KSR; 1% P/S and A83-01 (2 μM) from days 0-5. From days 0-9 the medium contained also CHIR99021 (6 μM). From Day 3-9 the medium included RO4929097 (2 μM) and SU5402 (3 μM). […]
Electrophysiology: To characterize the neuronal properties with electrophysiology recordings, round small neurons (20-40 μm in diameter) were selected from day 31 and onwards. Cells were monitored for their polarized negative membrane potential and for their ability to evoke consistent spikes train responses to repeated positive current injections as a mark of achieving electrical maturation before testing the effect of the tested compounds on neuronal excitability. Membrane excitability was monitored using current clamp. […]
The inhibitory potency of the newly designed compounds as described herein was evaluated based on their ability to reduce the spontaneous neuronal activity.

rat DRGs = assay: NGF-treated rat DRG neuropathic model, capsaicin-induced tetanic burst; format: cell-based; conditions: NGF 100 ng/ml pretreated
Protocol: DRGs treated with NGF show tetanic action potential burst in response to CAP application, mimicking neuropathic like response. See, Background Art FIG. 8A. NGF enhances TRPV1 function using Calcium-dependent fluorescence, F, relative to maximal fluorescence, Fmax, as a function of time from a single HEK293 cell stably transfected with TrkA and transiently transfected with hTRPV1. Pulses of capsaicin (100 nM, applied as shown at top) elicited submaximal increases in [Ca]i. Exposure to NGF (100 ng/mL, see top) enhanced the capsaicin induced calcium increase. Arrows show responses used for calculation of sensitization ratio.

98 targets = assay: Functional screening panel, 98 targets
OATP1B1 = OATP1B1 (Homo sapiens, UniProt Q9Y6L6); assay: Transporter substrate, OATP1B1; format: in vitro ADME; conditions: role: substrate
Protocol: Additionally, compound 760 was tested for its capability to act as a transporter substrate for various transporters, and was not found to be a transporter substrate for any of the tested transporters.

rats = assay: Chronic 5-day BID exposure; format: in vivo, rat; conditions: up to 300 mg/kg BID, oral
DRG distribution in rat = format: in vivo; conditions: 8-hour post-dose

OATP1B1, sequence (Q9Y6L6 whole entry): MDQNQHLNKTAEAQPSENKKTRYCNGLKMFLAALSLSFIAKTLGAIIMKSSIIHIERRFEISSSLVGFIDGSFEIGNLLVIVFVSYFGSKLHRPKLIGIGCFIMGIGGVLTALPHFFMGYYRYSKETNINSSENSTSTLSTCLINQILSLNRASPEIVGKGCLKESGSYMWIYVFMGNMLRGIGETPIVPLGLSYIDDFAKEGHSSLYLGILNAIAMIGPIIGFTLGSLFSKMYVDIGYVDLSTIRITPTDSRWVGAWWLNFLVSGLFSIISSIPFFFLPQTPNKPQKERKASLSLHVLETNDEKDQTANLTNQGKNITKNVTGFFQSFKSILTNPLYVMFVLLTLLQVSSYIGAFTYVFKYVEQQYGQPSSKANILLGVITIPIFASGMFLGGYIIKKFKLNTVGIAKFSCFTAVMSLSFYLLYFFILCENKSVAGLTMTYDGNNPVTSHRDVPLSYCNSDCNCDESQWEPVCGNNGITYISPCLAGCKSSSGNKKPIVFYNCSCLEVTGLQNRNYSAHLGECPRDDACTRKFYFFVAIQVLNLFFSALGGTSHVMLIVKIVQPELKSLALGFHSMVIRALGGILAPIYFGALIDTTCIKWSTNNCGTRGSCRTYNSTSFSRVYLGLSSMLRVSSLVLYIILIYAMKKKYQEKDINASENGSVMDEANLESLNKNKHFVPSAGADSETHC

COC[C@@H](CO)NC(=O)Cc1cc(Sc2c(Cl)cc(F)cc2C(C)C)ccc1F [Compound 415]
Spontaneous activity of human sensory neurons (human sensory neurons): significantly reduced

Cc1cn(-c2ccc(F)c(CC(=O)NCC(C)(C)O)c2)c2c(Cl)cc(Cl)cc12 [Compound 421-6]
Effect on capsaicin induced tetanic action potential burst (rat DRGs): alleviates the capsaicin induced tetanic action potential burst at levels below EC50; also recorded: reversible inhibition

O=C(Cc1nccc(-n2cc(Cl)c3cc(Cl)cc(Cl)c32)n1)NC1COCC1O (stereo not drawn) [Compound 760]
Off-target effect profile (98 targets): clean off-target effect profile | OATP1B1 substrate (OATP1B1): not a transporter substrate | Gross safety, 5-day BID (rats): did not raise any gross safety concerns

O=C(Cc1cncc(-n2cc(Cl)c3cc(Cl)cc(Cl)c32)c1)N[C@@H]1COC[C@H]1O [Compound 661]
Free exposure in DRG (DRG distribution in rat): 0.012 nM
